Square brackets hold non-standard residues; d marks the D form. Ends that are not written are not given here. Peptide text beside a SMILES is read from it.
Tested on: DLBCL cell lines known to be biologically dependent on BCL6 (ly1, Ly7 and Ly10)
Test: DLBCL cell growth inhibition, BCL6-dependent cell lines
Type: cell-based, human
Details: for anti-lymphoma activity: BCL6 dependent DLBCL cells, 48 h; for GI50: Ly1, Ly7, Ly10, 48 hr total amount, dose frequency as in Table 1
Description: DLBCL cell lines were grown at its respective concentration that were sufficient to keep the untreated cells in exponential growth over the 48 h peptide exposure time. Cell viability was determined by using a fluorometric resazurin reduction method (CellTiter-Blue, Promega) following the manufacturer instructions. The fluorescence (560Ex/590Em) was determined using the Polarstar Optima microplate reader (BMG Labtechnologies). The number of viable cells in each treated well was calculated by using the linear least-squares regression of the standard curve. Optical density was determined for 6 replicates per treatment condition or standard. Cell viability in peptide-treated cells was normalized to their respective controls. Cell viability was verified by the Sulforhodamine B assay (Sigma, Milwaukee, Wis.) following manufacturer's instructions with minor modifications for suspended cells. Experiments were carried out in triplicates and data are represented as percentage of growth inhibition to respective control with 95% confidence interval.
DLBCL cell growth inhibition was chosen as the most relevant screening assay to compare and contrast the biological activity of BPI and its derivatives. […] Growth inhibition was measured by a metabolic viability assay and verified by trypan blue exclusion and were performed in biological quintuplicates. […]

Row | Compound | anti-lymphoma activity | GI50 | further results
1 | CC[C@@H](C)[C@@H](NC(=O)CNC(=O)[C@@H](CCCNC(=N)N)NC(=O)CNC(=O)CNC(=O)[C@@H](CCCNC(=N)N)NC(=O)[C@@H](CCCCN)NC(=O)[C@@H](CCCCN)NC(=O)[C@@H](CCCNC(=N)N)NC(=O)[C@@H](CCCNC(=N)N)NC(=O)[C@@H](CCC(N)=O)NC(=O)[C@@H](CCCNC(=N)N)NC(=O)[C@@H](CCCNC(=N)N)NC(=O)[C@@H](CCCNC(=N)N)NC(=O)CN)C(=O)N[C@H](CCC(=O)O)C(=O)N[C@H](Cc1c[nH]cn1)C(=O)N[C@@H](C(=O)N[C@H](CO)C(=O)N[C@H](CCCNC(=N)N)C(=O)NCC(=O)O)[C@H](C)CC [S7] (H-G[dR][dR][dR][dQ][dR][dR][dK][dK][dR]GG[dR]G[dI][dE][dH][dI][dS][dR]G-OH; N-terminus and C-terminus assumed) | significantly weaker | – | –
2 | G[dD][dI][dM]G[dE][dW]G[dN][dE][dI][dF]G[dA][dI][dA]G[dF][dL]GG[dR][dR][dR][dQ][dR][dR][dK][dK][dR]GGRSIHEIPRG [S4] | – | 14.4 µM | –
3 | NH2-GLFGAIAGFIENGWEGMIDG-OH (H-GLFGAIAGFIENGWEGMIDG-OH) [Fu, reference compound] | – | – | effect on DLBCL viability (FIG. 8) (Ly1, Ly7 and Ly10, peptides administered every 4 h during a 48 h interval): little or no effect
4 | YGRKKRRQRRRGGLVATVKEAGRSIHEIPREEL [S1] | not active | – | –
5 | YGRKKRRQRRRGGRSIHEIPRG [S2] | – | 21.7 µM | –

Reference: patent US8791075B2, “Methods and compositions for inhibition of BCL6 repression” (Albert Einstein College of Medicine of Yeshiva University, priority 2008, dated 2014)
